PMC12473123, “Structure–Function Insights into Quinuclidine-3-One BisQACs: Synthesis, Modulation of Bacterial Resistance, Structure–Activity Relationship, and Biological Profiling” (Pharmaceuticals, 2025)

Experiments:
Assay type in all cases: cell-based
[1] = system: Staphylococcus aureus Clinical/MRSA; experiment: Broth microdilution MIC; conditions: Staphylococcus aureus, MRSA, read-out: Minimum Inhibitory Concentrations (MIC)
[2] = system: Salmonella enterica (food isolate); experiment: Broth microdilution MIC; conditions: read-out: Minimum Inhibitory Concentrations (MIC)
[3] = system: Staphylococcus aureus ATCC 25923; experiment: Broth microdilution MIC; conditions: for MIC: Staphylococcus aureus, ATCC25923, read-out: Minimum Inhibitory Concentrations (MIC)
[4] = system: Bacillus cereus ATCC 14579; experiment: Broth microdilution MIC; conditions: ATCC14579, read-out: Minimum Inhibitory Concentrations (MIC), Bacillus cereus ATCC 14579
[5] = system: Staphylococcus aureus ATCC 25923; experiment: Biofilm inhibition assay (crystal violet)
Description: The ability of the candidate compounds to inhibit biofilm formation was evaluated by determining the minimum biofilm inhibitory concentration (MBIC) against the biofilm-forming strains Staphylococcus aureus ATCC 25923 and Listeria monocytogenes ATCC 7644. Overnight bacterial cultures were diluted in fresh, pre-warmed Mueller–Hinton broth (MHB) and incubated at 37 °C with constant shaking at 220 rpm. Once the cultures reached the exponential growth phase (OD600 = 0.3–0.5), they were standardized to a final concentration of 4 × 10^6 CFU/mL.
Plates were incubated at 37 °C for 24 to 48 h, depending on the bacterial strain. After incubation, the planktonic cells were carefully aspirated to preserve the integrity of the biofilm layer. Wells were gently rinsed with sterile ultrapure Milli-Q water and air-dried at 60 °C for 1 h to fix the biofilms. Biofilm formation was quantified using a crystal violet (CV) staining method. Wells were stained with 100 µL of 0.1% CV solution and incubated at room temperature for 1 h. Excess dye was removed by rinsing with sterile ultrapure Milli-Q water, followed by air-drying. Bound CV was solubilized with 100 µL of 70% ethanol and incubated for 30 min. The solubilized dye was transferred to a fresh plate, and absorbance was measured at 595 nm using a microplate reader (Bio-Tek EL808, Winooski, VT, USA). Absorbance values were directly proportional to biofilm biomass. Untreated bacterial cultures served as positive controls for biofilm formation, while sterile MHB served as the negative control.

[6] = system: Enterococcus faecalis ATCC 29212; experiment: Broth microdilution MIC; conditions: Enterococcus faecalis, ATCC29212, read-out: Minimum Inhibitory Concentrations (MIC), Enterococcus faecalis ATCC 29212
[7] = system: Staphylococcus aureus ATCC 25923; experiment: Flow cytometry cell viability (TO/PI staining); conditions: at the onset of treatment, concentration not given
Description: To gain further insights into the effects of the test compounds on bacterial viability, Staphylococcus aureus ATCC 25923 was analyzed using flow cytometry (NovoCyte Advanteon, Agilent Technologies, Santa Clara, CA, USA). Two independent overnight cultures were diluted 1:10 in fresh Mueller–Hinton broth (MHB) and incubated at 37 °C with shaking at 220 rpm until reaching the early exponential growth phase. Cells were then harvested by centrifugation (4500× g, 10 min, room temperature). One cell pellet was resuspended in a staining buffer composed of phosphate buffer (pH 7.4) supplemented with 1 mM EDTA and 0.1% Tween 20. […] Both preparations were adjusted to a final density of 1 × 10^6 CFU/mL and served as controls for fluorescence compensation alongside an unstained bacterial population. Bacterial viability was assessed using the BD^TM Cell Viability Kit (BD Biosciences, San Jose, CA, USA), which employs thiazole orange (TO) and propidium iodide (PI) for dual fluorescence labeling. […] Flow cytometric analysis enabled the discrimination of live (TO+/PI−), damaged (TO+/PI+), and dead (TO−/PI+) bacterial populations based on their fluorescence profiles, allowing for a time-resolved evaluation of compound-induced cytotoxicity.

[8] = system: panel of clinically relevant bacterial strains; experiment: Broth microdilution MIC, summary over the panel; conditions: Staphylococcus aureus (including MRSA), Listeria monocytogenes, Escherichia coli
[9] = S. aureus ATCC 25923, 6.25 µg/mL
[10] = S. aureus ATCC 25923, 12.5 µg/mL
[11] = S. aureus ATCC 25923, 100 µg/mL

CCCCCCCCCCCCCCCCNC1C[N+]2(CCC[N+]34CCC(CC3)C(NCCCCCCCCCCCCCCCC)C4)CCC1CC2 (racemic) [2(QC16)3, (±)-1,1′-(Propane-1,3-diyl) bis(3-(hexadecylamino)quinuclidinium) dibromide]
MIC [1]: > 75 µM
MIC [2]: > 75 µM
MIC [3]: 38 µM
MIC [4]: > 75 µM
biofilm inhibition [5, 9]: > 2%
biofilm inhibition [5, 10]: 11%
biofilm inhibition ([5]; S. aureus ATCC 25923, 25 µg/mL): > 80%
biofilm inhibition ([5]; S. aureus ATCC 25923, 50 µg/mL): exceeding 90%
biofilm inhibition [5, 11]: exceeding 90%
MIC [6]: > 75 µM

CCCCCCCCCCCCCCCCNC1C[N+]2(CCCCCC[N+]34CCC(CC3)C(NCCCCCCCCCCCCCCCC)C4)CCC1CC2 (racemic) [2(QC16)6, (±)-1,1′-(Hexane-1,6-diyl) bis(3-(hexadecylamino)quinuclidinium) dibromide]
MIC [1]: 38 µM
cells with signs of membrane damage (TO+/PI+) [7]: over 80%
fully viable cells (TO+/PI−) [7]: < 5%
MIC [2]: 75 µM
Minimum Inhibitory Concentrations (MIC) ([3]; Staphylococcus aureus ATCC 25923): 9 µM
MIC [3]: 9 µM
MIC [8]: 5 to 38 µM
biofilm inhibition [5, 9]: 6%
biofilm inhibition [5, 10]: > 30%
biofilm inhibition ([5]; S. aureus ATCC 25923, 25 µg/mL): > 80%
biofilm inhibition ([5]; S. aureus ATCC 25923, 50 µg/mL): > 90%
biofilm inhibition [5, 11]: 95%
